Assay [1] has as its target T1, Recombinant STAT6 protein (STAT6 (W123-T658)) (Homo sapiens, UniProt P42226).
T1 construct: Recombinant STAT6 protein (STAT6 (W123-T658))
T1 sequence (P42226 123-658): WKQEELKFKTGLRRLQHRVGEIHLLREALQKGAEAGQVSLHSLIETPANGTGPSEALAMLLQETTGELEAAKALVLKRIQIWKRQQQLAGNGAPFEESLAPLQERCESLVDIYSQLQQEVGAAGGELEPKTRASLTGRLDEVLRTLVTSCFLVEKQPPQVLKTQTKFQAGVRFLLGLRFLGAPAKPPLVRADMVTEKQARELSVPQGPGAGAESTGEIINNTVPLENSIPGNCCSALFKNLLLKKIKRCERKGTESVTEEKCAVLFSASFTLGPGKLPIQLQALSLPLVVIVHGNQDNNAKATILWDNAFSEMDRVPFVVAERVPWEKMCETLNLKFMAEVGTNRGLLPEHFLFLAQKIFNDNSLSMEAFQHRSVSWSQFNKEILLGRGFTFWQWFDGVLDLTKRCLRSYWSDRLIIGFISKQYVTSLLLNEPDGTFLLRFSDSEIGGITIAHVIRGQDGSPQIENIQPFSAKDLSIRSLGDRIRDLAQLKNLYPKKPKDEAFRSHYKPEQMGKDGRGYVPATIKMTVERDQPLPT
Description: STAT6 Fluorescence Polarization (FP) Assay. It counts as binding. The following applies: 45-minute incubation. The procedure: STAT6 Fluorescence Polarization (FP) Assay
An FP assay was developed to determine IC50 values for test substances. Recombinant STAT6 protein (STAT6 (W123-T658)) at 250 nM was combined with a fluorescently labeled, phosphotyrosine peptide probe (5-FAM-Ap[…]-NH2) at 2 nM in FP buffer (10 mM HEPES pH 7.4, 50 mM NaCl, 1 mM EDTA, 0.05% Tween 20, 2 mM DTT). 50 μL of STAT6-probe mixture was added to serial diluted compounds in black, 96-well plates (Greiner BioOne 655076) to a final concentration of 1% DMSO. Reaction components were mixed, and FP was measured after 45-minute incubation at room temperature using a Tecan Spark multimode plate reader. FP signal (mP) was plotted against the log concentration of the test substances and IC50 values were calculated by nonlinear regression analysis using GraphPad Prism software. For STAT6 FP assay, A=≤300 nM; B=>300-3000 nM; C=>3-30 μM; and D=>30 μM.

In assay [2] the target is T2, Recombinant STAT3 protein (STAT3 (G127-I722)) (Homo sapiens, UniProt P40763).
T2 construct: Recombinant STAT3 protein (STAT3 (G127-I722))
In words: STAT3 Fluorescence Polarization (FP) Assay. The following applies: probe 5-FAM-GpYLPQTV-NH2 2 nM, 45-minute incubation. It is filed as binding. On the procedure:
STAT3 Fluorescence Polarization (FP) Assay
An FP assay was developed to determine IC50 values for test substances. Recombinant STAT3 protein (STAT3 (G127-I722)) at 25 nM was combined with a fluorescently labeled, phosphotyrosine peptide probe (5-FAM-GpYLPQTV-NH2) at 2 nM in FP buffer (10 mM HEPES pH 7.4, 50 mM NaCl, 1 mM EDTA, 0.05% Tween 20.2 mM DTT). 50 μL of STAT3-probe mixture was added to serial diluted compounds in black, 96-well plates (Greiner BioOne 655076) to a final concentration of 1% DMSO. Reaction components were mixed, and FP was measured after 45-minute incubation at room temperature using a Tecan Spark multimode plate reader. FP signal (mP) was plotted against the log concentration of the test substances and IC50 values were calculated by nonlinear regression analysis using GraphPad Prism software. For STAT3 FP assay, A=≤100 nM; B=>100-1000 nM; C=>1-10 μM; and D=>10 μM.
A general note: In fluorescence polarisation assays a small probe gives low polarisation when free and higher when bound to something large.

Setting [3] is: STAT6 (W123-T658) 250 nM, probe 5-FAM-Ap[…]-NH2 2 nM, read-out: STAT6 (FP assay IC50 class).
The mark [4] stands for this setting: STAT3 (G127-I722) 25 nM, read-out: STAT3 (FP assay IC50 class).
Where [5] appears, read: STAT6 (W123-T658) 250 nM, probe 5-FAM-ApYKPFQDLI-NH2 2 nM, read-out: STAT6 (FP assay IC50 class).
The mark [6] stands for this setting: STAT6 250 nM, probe 5-FAM-Ap[…]-NH2 2 nM, read-out: STAT6 (FP assay IC50).
Where [7] appears, read: STAT3 25 nM, read-out: STAT3 (FP assay IC50).

For orientation: IC50 means the concentration needed to halve the response being measured.

Like-named read-outs stand apart in the source and are kept apart here.

T2 sequence (P40763 127-722): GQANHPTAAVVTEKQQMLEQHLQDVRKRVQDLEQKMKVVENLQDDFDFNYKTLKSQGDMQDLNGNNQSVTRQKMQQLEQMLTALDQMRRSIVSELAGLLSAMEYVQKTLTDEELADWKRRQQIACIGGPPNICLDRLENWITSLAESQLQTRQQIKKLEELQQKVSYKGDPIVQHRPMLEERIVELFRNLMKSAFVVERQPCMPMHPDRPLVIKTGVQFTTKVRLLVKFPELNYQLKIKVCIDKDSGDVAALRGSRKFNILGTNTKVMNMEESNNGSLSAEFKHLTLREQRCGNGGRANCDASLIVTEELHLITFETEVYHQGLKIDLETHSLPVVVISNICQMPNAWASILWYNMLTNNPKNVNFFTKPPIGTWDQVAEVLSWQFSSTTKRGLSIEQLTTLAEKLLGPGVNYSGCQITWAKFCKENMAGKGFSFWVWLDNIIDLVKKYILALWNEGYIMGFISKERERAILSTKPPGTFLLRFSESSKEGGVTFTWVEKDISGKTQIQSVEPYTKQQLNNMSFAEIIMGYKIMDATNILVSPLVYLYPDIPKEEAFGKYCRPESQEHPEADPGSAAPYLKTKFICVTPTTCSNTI

Take `COc1cccc([C@@H]2CN(C(=O)[C@@H]3CC[C@@H]4CCCC[C@H](NC(=O)c5cc6cc(C(F)P(=O)(O)O)ccc6s5)C(=O)N43)C3(CC3)[C@H]2C#N)c1` (relative stereo) [Compound 231, ((2-(((3S,6S,10aS)-3-((rel-trans)-7-cyano-6-(3-methoxyphenyl)-4-azaspiro[2.4]heptane-4-carbonyl)-5-oxodecahydropyrrolo[1,2-a]azocin-6-yl)carbamoyl)benzo[b]thiophen-5-yl)fluoromethyl)phosphonic acid]: the IC50 in assay [1] (setting [3]) is ≤ 300 nM; in assay [2] (setting [4]) it was 1000 to 10000 nM.
The corresponding values for `N#C[C@@H]1CN(C(=O)[C@@H]2CCC[C@@H]3CCC[C@H](NC(=O)c4cc5cc(C(F)P(=O)(O)O)ccc5s4)C(=O)N32)C[C@H]1c1ccccc1` (relative stereo) [Compound 551, ((2-(((4S,7S,10aS)-4-((rel-trans)-3-cyano-4-phenylpyrrolidine-1-carbonyl)-6-oxodecahydropyrido[1,2-a]azepin-7-yl)carbamoyl)benzo[b]thiophen-5-yl)fluoromethyl)phosphonic acid] are ≤ 300 nM and 1000 to 10000 nM.
The matching figures for `N#C[C@H]1CN(C(=O)[C@@H]2CCC[C@@H]3CCCC[C@H](NC(=O)c4cc5cc(C(F)P(=O)(O)O)ccc5s4)C(=O)N32)C[C@@H]1c1ccccc1` (relative stereo) [Compound 552, ((2-(((4S,7S,11aS)-4-((rel-trans)-3-cyano-4-phenylpyrrolidine-1-carbonyl)-6-oxodecahydro-2H-pyrido[1,2-a]azocin-7-yl)carbamoyl)benzo[b]thiophen-5-yl)fluoromethyl)phosphonic acid]: ≤ 300 nM and 1000 to 10000 nM.
The matching figures for `N#C[C@@H]1CN(C(=O)[C@@H]2C[C@@H](O)[C@@H]3CCCCC[C@H](NC(=O)c4cc5cc(C(F)P(=O)(O)O)ccc5s4)C(=O)N23)C[C@H]1c1ccccc1` (relative stereo) [Compound 553, ((2-(((1R,3S,6S,11aS)-3-((rel-trans)-3-cyano-4-phenylpyrrolidine-1-carbonyl)-1-hydroxy-5-oxodecahydro-1H-pyrrolo[1,2-a]azonin-6-yl)carbamoyl)benzo[b]thiophen-5-yl)fluoromethyl)phosphonic acid]: 300 to 3000 nM and 1000 to 10000 nM.
As to `N#CC1CN(C(=O)[C@@H]2CC[C@@H]3CC[C@H](NC(=O)c4cc5cc(C(F)(F)P(=O)(O)O)ccc5s4)C(=O)N32)C[C@@H]1c1ccccc1` (relative stereo) [Compound 733, ((2-(((3S,6S,8aS)-3-((rel-trans)-3-cyano-4-phenylpyrrolidine-1-carbonyl)-5-oxooctahydro-indolizin-6-yl)carbamoyl)benzo [b]thiophen-5-yl)difluoromethyl) phosphonic acid], the IC50 in assay [1] (setting [3]) lay in the range of 300 to 3000 nM; in assay [2] (setting [4]), 1000 to 10000 nM.
For the molecule `N#CC1CN(C(=O)[C@@H]2C[C@@H](O)[C@H]3C/C=C\C[C@H](NC(=O)c4cc5cc(C(F)(F)P(=O)(O)O)ccc5s4)C(=O)N32)CC1c1ccccc1` (relative stereo) [Compound 758, ((2-(((1R,3S,6S,10aR,Z)-3-((rel-trans)-3-cyano-4-phenylpyrrolidine-1-carbonyl)-1-hydroxy-5-oxo-1,2,3,5,6,7,10,10a-octahydropyrrolo[1,2-a]azocin-6-yl)carbamoyl)benzo [b]thiophen-5-yl)difluoromethyl) phosphonic acid], the figures for the half-inhibitory concentration (IC50) in assay [1] (setting [5]) and in assay [2] (setting [4]) were 300 to 3000 nM and 1000 to 10000 nM, respectively.
The matching figures for `N#C[C@@H]1CN(C(=O)[C@@H]2CC[C@@H]3CCCC[C@H](NC(=O)c4cc5cc(C(F)(F)P(=O)(O)O)ccc5s4)C(=O)N32)C[C@H]1c1cccc(=O)[nH]1` (relative stereo) [Compound 867, ((2-(((3S,6S,10aS)-3-((rel-trans)-3-cyano-4-(6-oxo-1,6-dihydropyridin-2-yl)pyrrolidine-1-carbonyl)-5-oxodecahydropyrrolo [1,2-a]azocin-6-yl)carbamoyl)benzo [b]thiophen-5-yl)difluoromethyl) phosphonic acid]: ≤ 300 nM and 100 to 1000 nM.
As to `O=C(N[C@H]1CCCC[C@H]2CC[C@@H](C(=O)N[C@H]3COCC3F)N2C1=O)c1cc2cc(C(F)(F)P(=O)(O)O)ccc2s1` (relative stereo) [Compound 1109, (difluoro(2-(((3S,6S,10aS)-3-(((rel-trans)-4-fluorotetrahydrofuran-3-yl)carbamoyl)-5-oxodecahydropyrrolo[1,2-a]azocin-6-yl)carbamoyl)benzo[b]thiophen-5-yl)methyl)phosphonic acid], the results for the IC50 in assay [1] (setting [3]) and in assay [2] (setting [4]) were 300 to 3000 nM and 100 to 1000 nM, respectively.
The matching figures for `O=C(N[C@H]1CCCC[C@H]2CC[C@@H](C(=O)N[C@H]3COC[C@H]3F)N2C1=O)c1cc2cc(C(F)(F)P(=O)(O)O)ccc2s1` (relative stereo) [Compound 1111, (difluoro(2-(((3S,6S,10aS)-3-(((rel-trans)-4-fluorotetrahydrofuran-3-yl)carbamoyl)-5-oxodecahydropyrrolo[1,2-a]azocin-6-yl)carbamoyl)benzo[b]thiophen-5-yl)methyl)phosphonic acid]: 3000 to 30000 nM and 1000 to 10000 nM.
Turning to `C[C@@]1(O)CC[C@H]2CC[C@@H](C(=O)N3C[C@H](c4ccccc4)[C@@H](C#N)C3)N2C(=O)[C@@H](NC(=O)c2cc3cc(C(F)(F)P(=O)(O)O)ccc3s2)C1` (single isomer, unassigned) [Compound 14, ((2-(((3S,6S,8R,10aR)-3-((3R,4S or 3S,4R)-3-cyano-4-phenylpyrrolidine-1-carbonyl)-8-hydroxy-8-methyl-5-oxodecahydropyrrolo [1,2-a]azocin-6-yl)carbamoyl)benzo[b]thiophen-5-yl)difluoromethyl) phosphonic acid], the half-maximal inhibitory concentration (IC50) was ≤ 300 nM in assay [1] (setting [6]) and 100 to 1000 nM in assay [2] (setting [7]).
The matching figures for `N#C[C@@H]1CN(C(=O)[C@@H]2CC[C@@H]3CCCC[C@H](NC(=O)c4cc5cc([C@H](F)P(=O)(O)O)ccc5s4)C(=O)N32)C[C@H]1c1ccccc1` (single isomer, unassigned) [Compound 18, ((2-(((3S,6S,10aS)-3-((3S,4R or 3R,4S)-3-cyano-4-phenylpyrrolidine-1-carbonyl)-5-oxodecahydropyrrolo [1,2-a]azocin-6-yl)carbamoyl)benzo[b]thiophen-5-yl)fluoromethyl) phosphonic acid]: ≤ 300 nM and 1000 to 10000 nM.
The corresponding values for `N#C[C@@H]1CN(C(=O)[C@@H]2CC[C@@H]3CCCC[C@H](NC(=O)c4cc5cc([C@@H](F)P(=O)(O)O)ccc5s4)C(=O)N32)C[C@H]1c1ccccc1` (single isomer, unassigned) [Compound 19, ((2-(((3S,6S,10aS)-3-((3S,4R or 3R,4S))-3-cyano-4-phenylpyrrolidine-1-carbonyl)-5-oxodecahydropyrrolo [1,2-a]azocin-6-yl)carbamoyl)benzo[b]thiophen-5-yl)fluoromethyl) phosphonic acid] are ≤ 300 nM and 1000 to 10000 nM.

(Values after patent publication US20250215029A1 (Recludix Pharma, Inc., priority 2022, published 2025).)
